Holding throughout (format): in vivo
Assay [1] relates to larvae of the fall army worm (Spodoptera frugiperda). Description: Spodoptera frugiperda test (cabbage leaf dip, mortality). The note with it: mortality after 4 days, cabbage leaves dipped.
The test system of assay [2] is larvae of the diamond black moth Plutella xylostella. Description: Plutella xylostella test (cabbage leaf dip, mortality). As to conditions: mortality after 6 days, cabbage leaves dipped.
Assay [3] concerns larvae of the beet army worm (Spodoptera exigua). Description: Spodoptera exigua test (cabbage leaf dip, mortality). As to conditions: mortality after 4 days, cabbage leaves dipped.

Five compounds from patent US9210935B2, “Pesticide composition comprising fosetyl-aluminium, propamocarb-HCl and an insecticide active substance” (BAYER INTELLECTUAL PROPERTY GMBH, priority 2006, dated 2015) can be followed below.

Each structure is given as a SMILES string.

On to `CN/C(=N\[N+](=O)[O-])NCc1cnc(Cl)s1` [clothianidin], for which the Efficacy in assay [1] (rate of application 4 ppm) is recorded as 50%.
`O=[N+]([O-])NC1=NCCN1Cc1ccc(Cl)nc1` [imidacloprid] had an Efficacy in assay [2] (rate of application 100 ppm) of 15%.
`CN1COCN(Cc2cnc(Cl)s2)/C1=N\[N+](=O)[O-]` [thiamethoxam] gave an Efficacy in assay [3] (rate of application 20 ppm) of 0%.
For the compound `CCCOC(=O)NCCCN(C)C.Cl` [propamocarb-HCl, propyl[3-(dimethylamino)propyl]carbamate hydrochloride], the Efficacy came to 0% in assay [3] (rate of application 200 ppm), 0% in assay [2] (rate of application 200 ppm) and 10% in assay [1] (rate of application 200 ppm).
In turn, `N#C/N=C1\SCCN1Cc1ccc(Cl)nc1` [thiacloprid] displayed an Efficacy in assay [1] (rate of application 20 ppm) of 0%.
